Data on 22 compounds can be found in US20050043381A1, “Aminopyrazole compounds” (AGOURON PHARMACEUTICALS, INC., priority 2003, published 2005).

The test system of one experiment is CA-46 (lymphoma) cells. The experiment in a line: Whole cell checkpoint abrogation assay (CHK1 Mitotic Index ELISA). The class given is cell-based. As to conditions: for EC50: concentration causing 50% abrogation of the checkpoint, camptothecin + Nocodazole. On the procedure:
To examine the in vitro effects of CHK1 inhibitory compounds, an ELISA assay can be designed to monitor the abrogation of DNA damage-induced checkpoint control. The assay can be based on the trapping and detection of mitotic cells following DNA damage-induced arrest.
CA-46 (lymphoma) cells can be treated with a DNA damaging agent, such as camptothecin (Sigma), at 50 nM for 8 hours to induce DNA damage. The control compound or CHK1 inhibitor can be then added at increasing concentrations with Nocodazole (Sigma) at 0.1 μg/ml and plates can be incubated for 16 hours. Control cells, where only CHK1 inhibitors can be added, can be prepared as well to assure that the inhibitors alone have no effect on the cell cycle. The cells can be then harvested, washed with PBS, and crude acid extraction can be performed. Pellets can be resuspended in 80 μl of Acid Extraction Buffer (10 mM Hepes pH 7.9, 1.5 mM MgCl2, 10 mM KCl, 0.5 mM DTT, 1.5 mM PMSF, 0.4N sulfuric acid), vortexed briefly, and incubated for 30 minutes on ice. Samples can be then centrifuged and 75 μl of the supernatant can be transferred to a 96 well flat-bottom plate (VWR 3596). Next 15 μl Neutralizing Cocktail (# of samples×(10 μl 10N NaOH+5 μl 1M Tris Base) can be added to each well, and after mixing, 5 μl of this can be transferred to another 96 well plate with 100 μl 50 mM Tris base (pH 9.6) in each well. Samples can be dried overnight. The wells can be then washed with 200 μl ELISA wash buffer (PBS with 20 mM Tris pH 7.5, 0.05% Tween 20) 5 times and blocked with 200 μl blocking buffer (PBS with 20 mM Tris pH 7.5, 0.05% Tween 20, 3.5% Dry milk, 1.5% BSA. pH to 7.5 after preparation) for 1 hour at room temperature. Following wash and block, anti-phospho Histone H3 antibodies (Upstate USA, Inc., rabbit polyclonal) can be added at 0.5 μg/ml in block (100 μl per well) and incubated for 2 hours at room temperature. Wells can be washed again to remove unbound primary antibody and 100 μl alkaline phosphatase conjugated secondary antibodies at 0.3 mg/ml (Pierce, goat anti-rabbit IgG ([…]+L)) in block can be added for 1 hour at room temp. Wells can be washed 5 times to remove unbound secondary antibody, and washed again 3 times with PBS alone to remove detergents. Then 100 μl alkaline phosphatase substrate (Pierce 1-Step pNPP) can be added to wells. Plates can be protected from light and incubated at room temp for 1 hour. The OD can be read on Molecular Devices Vmax Kinetic Microplate Reader at 405 nm. The ratio of the OD (optical density) of a compound treated sample to the Nocodazole only treated sample (about 100% mitotic or abrogation) can be expressed in a percentage, and quantifies the percent abrogation of the checkpoint. The concentration at which a compound causes 50% abrogation of the checkpoint can be called the EC50. The raw OD values can be graphed in Excel, and an EC50 value can be generated using Kaleidograph software. Strong signal results from Nocodazole only treated cells, and equals 100% mitosis in this assay. Camptothecin+Nocodazole treated control samples have low signal, signifying no mitosis and therefore, no checkpoint abrogation. When potent CHK1 inhibitors are added to Camptothecin treated cells with Nocodazole, a high signal can be generated (generally in a dose dependent manner), due to the checkpoint abrogation activity caused by the combination treatment.
In general terms: In an ELISA, binding on a coated surface is turned into a signal by an enzyme label.

Experiment [1] deals with T1, full-length human CHK1 (FL-CHK1) (Homo sapiens, UniProt O14757).
T1 construct: C-terminally His-tagged full-length human CHK1 (FL-CHK1); 6xHis (C); made in house
T1 sequence (O14757 1-476): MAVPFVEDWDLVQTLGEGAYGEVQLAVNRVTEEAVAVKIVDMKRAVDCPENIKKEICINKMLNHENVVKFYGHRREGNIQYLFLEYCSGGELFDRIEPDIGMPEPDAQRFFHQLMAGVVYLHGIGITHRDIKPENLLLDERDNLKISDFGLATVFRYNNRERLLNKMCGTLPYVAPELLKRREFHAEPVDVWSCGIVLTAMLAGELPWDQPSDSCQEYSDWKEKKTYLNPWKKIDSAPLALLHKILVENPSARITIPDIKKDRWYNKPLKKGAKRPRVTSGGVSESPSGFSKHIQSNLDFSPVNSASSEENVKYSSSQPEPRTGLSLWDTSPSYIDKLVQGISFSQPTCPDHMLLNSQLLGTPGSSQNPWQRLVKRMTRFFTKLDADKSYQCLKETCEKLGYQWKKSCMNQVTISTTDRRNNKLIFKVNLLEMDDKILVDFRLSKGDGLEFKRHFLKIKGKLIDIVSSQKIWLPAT
Nature of the experiment: FL-CHK1 assay (coupled spectrophotometric, Syntide-2). Format: biochemical. As to conditions: FL-CHK1, 0.15 mM ATP. The text has this: C-terminally His-tagged full-length human CHK1 (FL-CHK1) was expressed using the baculovirus/insect cell system. It contains 6 histidine residues (6 x His-tag) at the C-terminus of the 476 amino acid human CHK1. The protein was purified by conventional chromatographic techniques.
The production of ADP from ATP that accompanies phosphoryl transfer to the synthetic substrate peptide Syntide-2 (PLARTLSVAGLPGKK) was coupled to oxidation of NADH using phosphoenolpyruvate (PEP) through the actions of pyruvate kinase (PK) and lactic dehydrogenase (LDH). The oxidation of NADH was monitored by following the decrease of absorbance at 340 nm (ε340=6.22 cm^−1 mM^−1) using a HP8452 spectrophotometer. Typical reaction solutions contained: […] PEP; 0.15 mM NADH; 28 units of LDH/mL; 16 units of PK/mL; 3 mM DTT; 0.125 mM Syntide-2; 0.15 mM ATP; 25 mM MgCl2 in 50 mM TRIS, pH 7.5; and 400 mM NaCl. Assays were initiated with 10 nM of FL-CHK1. Ki values were determined by measuring initial enzyme activity in the presence of varying concentrations of test compounds. The data were analyzed using Enzyme Kinetic and Kaleidagraph software. […]

In general, EC50 refers to the concentration at which the effect is half-maximal. The Ki is the dissociation constant of the complex between target and ligand, obtained from inhibition or displacement. Read a low Ki as tighter binding.

In the case of `Oc1cc(O)c(-c2ccc(-c3cc(Nc4ccc(CNC5CC5)cc4)n[nH]3)cc2)c(F)c1` [Example 9, 4′-[5-({4-[(cyclopropylamino)methyl]phenyl}amino)-1H-pyrazol-3-yl]-6-fluoro-1,1′-biphenyl-2,4-diol], the EC50 in the experiment on CA-46 (lymphoma) cells amounted to 0.088 µM. Also, in experiment [1], the Ki fell in the range of 0.001 to 0.01 µM. Take `OCc1cc(Nc2cc(-c3ccc(-c4ccc(O)cc4O)cc3)[nH]n2)ccn1` [Example 13, 4′-[5-(2-Hydroxymethyl-pyridin-4-ylamino)-2H-pyrazol-3-yl]-biphenyl-2,4-diol acetate]: the “percent abrogation of the checkpoint” value in the experiment on CA-46 (lymphoma) cells (@ 0.5 μM) came to 0% @ 0.5 μM.

As for `Oc1ccc(-c2ccc(-c3cc(Nc4ccccc4)n[nH]3)cc2)c(O)c1` [Example 21, 4′-(3-anilino-1H-pyrazol-5-yl)-1,1′-biphenyl-2,4-diol], in the experiment with CA-46 (lymphoma) cells, the concentration for a half-maximal effect (EC50) is 0.5 µM. Consider `Oc1ccc(-c2ccc(-c3cc(Nc4ccc(CNCC5CC5)nc4)[nH]n3)cc2)c(O)c1` [Example 23, 4′-{5-[(6-{[(cyclopropylmethyl)amino]methyl}pyridin-3-yl)amino]-1H-pyrazol-3-yl}-1,1′-biphenyl-2,4-diol], for which the EC50 in the experiment with CA-46 (lymphoma) cells is 0.165 µM. This compound also showed a Ki in experiment [1] of 0.001 to 0.01 µM. Turning to `OCc1ccc(Nc2cc(-c3ccc(-c4ccc(O)cc4O)cc3)[nH]n2)cn1` [Example 12, 4′-[5-(6-Hydroxymethyl-pyridin-3-ylamino)-2H-pyrazol-3-yl]-biphenyl-2,4-diol], the “percent abrogation of the checkpoint” value in the experiment on CA-46 (lymphoma) cells (@ 0.5 μM) is 5% @ 0.5 μM.

Consider `Oc1ccc(-c2ccc(-c3cc(Nc4ccccn4)[nH]n3)cc2)c(O)c1` [Example 17, N-[5-(2′,4′-Dihydroxy-1,1′-biphenyl-4-yl)-1H-pyrazol-3-yl]pyridin-2-amine], for which the “percent abrogation of the checkpoint” value in the experiment on CA-46 (lymphoma) cells (@ 0.5 μM) is 16% @ 0.5 μM. For `Oc1ccc(-c2ccc(-c3cc(Nc4ccc(CNCC5CC5)cc4)n[nH]3)cc2)c(O)c1` [Example 10, 4′-[5-(4-Cyclopropylmethylaminomethyl-phenylamino)-2H-pyrazol-3-yl-]-biphenyl-2,4-diol acetate], the half-maximal effective concentration (EC50) in the experiment on CA-46 (lymphoma) cells turned out to be 0.075 µM. Take `Oc1ccc(-c2ccc(-c3cc(Nc4cncs4)[nH]n3)cc2)c(O)c1` [Example 20, 4′-[5-(1,3-thiazol-5-ylamino)-1H-pyrazol-3-yl]-1,1′-biphenyl-2,4-diol]: in the experiment with CA-46 (lymphoma) cells (@ 0.5 μM), the “percent abrogation of the checkpoint” value is reported as 10% @ 0.5 μM. Consider `N#Cc1ccc(Nc2cc(-c3ccc(-c4ccc(O)cc4O)cc3)n[nH]2)cc1` [Example 2, 4-{[3-(2′,4′-Dihydroxy-1,1′-biphenyl-4-yl)-1H-pyrazol-5-yl]amino}benzonitrile], for which, in the experiment on CA-46 (lymphoma) cells (@ 1 μM), the “percent abrogation of the checkpoint” value was 1% @ 1 μM. Also, the inhibition constant (Ki) in experiment [1] is 0.001 to 0.01 µM.

In the case of `CN(C)Cc1ccc(Nc2cc(-c3ccc(-c4ccc(O)cc4O)cc3)[nH]n2)cn1` [Example 15, 4′-[5-({6-[(dimethylamino)methyl]pyridin-3-yl}amino)-1H-pyrazol-3-yl]-1,1′-biphenyl-2,4-diol], the 50% effective concentration (EC50) with CA-46 (lymphoma) cells was determined as 0.38 µM. In experiment [1], this compound showed an inhibition constant Ki of 0.001 to 0.01 µM. As to `Oc1ccc(-c2ccc(-c3cc(Nc4cccc(CNC5CC5)c4)n[nH]3)cc2)c(O)c1` [Example 3, 4′-[5-(3-Cyclopropylaminomethyl-phenylamino)-2H-pyrazol-3-yl]-biphenyl-2,4-diol acetate], the EC50 in the experiment with CA-46 (lymphoma) cells worked out at 0.9 µM.

Regarding `CCNCc1ccc(Nc2cc(-c3ccc(-c4ccc(O)cc4O)cc3)[nH]n2)cn1` [Example 26, -[5-({6-[(ethylamino)methyl]pyridin-3-yl}amino)-1H-pyrazol-3-yl]-1,1′-biphenyl-2,4-diol], in the experiment with CA-46 (lymphoma) cells, the concentration for a half-maximal effect (EC50) was 0.56 µM. Consider `Oc1ccc(-c2ccc(-c3cc(Nc4ccc(CNC5CC5)nc4)n[nH]3)cc2)c(O)c1` [Example 24, 4′-[5-({6-[(cyclopropylamino)methyl]pyridin-3-yl}amino)-1H-pyrazol-3-yl]-1,1′-biphenyl-2,4-diol], for which, in the experiment with CA-46 (lymphoma) cells (@ 1 μM), the “percent abrogation of the checkpoint” value turned out to be 1% @ 1 μM. This compound also gave an inhibitory constant (Ki) in experiment [1] of 0.001 to 0.01 µM. Consider `Oc1ccc(-c2ccc(-c3cc(Nc4ccc(CNC5CCCC5)nc4)n[nH]3)cc2)c(O)c1` [Example 14, 4′-[5-({6-[(cyclopentylamino)methyl]pyridin-3-yl}amino)-1H-pyrazol-3-yl]-1,1′-biphenyl-2,4-diol], for which the half-maximal effective concentration (EC50) with CA-46 (lymphoma) cells was 0.16 µM. The compound further yielded an inhibition constant (Ki) in experiment [1] of 0.001 to 0.01 µM. With `N#Cc1cccc(Nc2cc(-c3ccc(-c4ccc(O)cc4O)cc3)n[nH]2)c1` [Example 1, 3-{[3-(2′,4′-Dihydroxy-1,1′-biphenyl-4-yl)-1H-pyrazol-5-yl]amino}benzonitrile], in the experiment with CA-46 (lymphoma) cells (@ 0.5 μM), the “percent abrogation of the checkpoint” value was found to be 7% @ 0.5 μM. In addition, the Ki in experiment [1] was in the range of 0.001 to 0.01 µM.

For the compound `Oc1ccc(-c2ccc(-c3cc(Nc4ncccn4)n[nH]3)cc2)c(O)c1` [Example 11, N-[3-(2′,4′-dihydoxy-1,1′-biphenyl-4-yl)-1H-pyrazol-5-yl]pyrimidin-2-amine], in experiment [1], the inhibition constant (Ki) was in the range of 0.001 to 0.01 µM. On to `Oc1cc(O)c(-c2ccc(-c3cc(Nc4ccc(CNC5CC5)cc4)n[nH]3)cc2)c(Cl)c1` [Example 8, 4′-[5-(4-Cyclopropylaminomethyl-phenylamino)-2H-pyrazol-3-yl]-biphenyl-6-chloro-2,4-diol acetate], for which the 50% effective concentration (EC50) in the experiment with CA-46 (lymphoma) cells is 0.15 µM. On the same count and under the same terms, with `Oc1ccc(-c2ccc(-c3cc(Nc4cccnc4)[nH]n3)cc2)c(O)c1` [Example 18, N-[5-(2′,4′-Dihydroxy-1,1′-biphenyl-4-yl)-1H-pyrazol-3-yl]pyridin-3-amine] the figure was 0.54 µM. On to `CC(C)NCc1ccc(Nc2cc(-c3ccc(-c4ccc(O)cc4O)cc3)n[nH]2)cn1` [Example 25, 4′-[5-({6-[(isopropylamino)methyl]pyridin-3-yl}amino)-1H-pyrazol-3-yl]-1,1′-biphenyl-2,4-diol], for which the EC50 in the experiment with CA-46 (lymphoma) cells was 0.56 µM. Take `Oc1ccc(-c2ccc(-c3cc(Nc4ccc(CNC5CC5)cc4)n[nH]3)cc2)c(O)c1` [Example 4, 4′-[5-(4-Cyclopropylaminomethyl-phenylamino)-2H-pyrazol-3-yl]-biphenyl-2,4-diol acetate]: the EC50 in the experiment on CA-46 (lymphoma) cells was 0.06 µM. Still for that read-out and setting: for `CCC(C)NCc1ccc(Nc2cc(-c3ccc(-c4ccc(O)cc4O)cc3)[nH]n2)cc1` (centres unmarked) [Example 22] the value was 0.06 µM; for `Cc1cc(O)cc(O)c1-c1ccc(-c2cc(Nc3ccc(CNC(C)C)cc3)n[nH]2)cc1` [Example 7], 0.38 µM.
